Measurements taken from patent US20070081573A1, “Process for inhibiting biofilm formation on and/or removing biofilm from an enhanced tube” (Ashland Licensing and Intellectual Property LLC, priority 2005, published 2007).
“Also recorded” adds a separate entry of the source.

Tested on: pseudomonas aerigenosa (ATCC 27853) biofilm
Assay: Biofouling test on enhanced tube and smooth tube in laboratory scale cooling tower system (modified P-U-L-S-E fouling monitor)
Format: cell-based

Row | SMILES | effect on inhibiting and/or removing biofilm | reduction of biofilm deposits (summary of test results)
1 | BrBr [bromine, reference compound] | little effect | not effective alone
2 | [O][Cl+][O-] [chlorine dioxide] | effective; also recorded: more effective than stabilized bromine | reduce the deposit of biofilm
